According to publication PMC9090415, “Discovery of small molecule inhibitors of Plasmodium falciparum apicoplast DNA polymerase” (Journal of Enzyme Inhibition and Medicinal Chemistry, 2022):

Target: P. falciparum apicoplast DNA polymerase (Pf-apPOL) (Plasmodium falciparum, UniProt Q8ILY1)
Experiment: Fluorescence-based high-throughput DNA polymerase assay (molecular beacon), primary screen and dose-response;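 for % inhibition ApPOL 90': test concentration in µM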;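 for % inhibition Apol 40': compound concentration given in µM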;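 for % inhibition apPOL 180': test concentration in µM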
Assay type: biochemical
Conditions: for DNA Pol: 90 min, 10 µM
Method in brief: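 Single-point screening used 10 µM compound with 20 nM polymerase, 20 nM hairpin substrate and 6 µM dNTPs for 90 min at 25 °C. Confirmatory titrations (2.5–80 µM) followed fluorescence at three times, and IC50 was derived from a fit including a cooperativity term n.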

[1] = 'DNA Pol' of the 186 hits list (primary screen value)

Sequence of P. falciparum apicoplast DNA polymerase (Pf-apPOL) (Q8ILY1 entry or part of it): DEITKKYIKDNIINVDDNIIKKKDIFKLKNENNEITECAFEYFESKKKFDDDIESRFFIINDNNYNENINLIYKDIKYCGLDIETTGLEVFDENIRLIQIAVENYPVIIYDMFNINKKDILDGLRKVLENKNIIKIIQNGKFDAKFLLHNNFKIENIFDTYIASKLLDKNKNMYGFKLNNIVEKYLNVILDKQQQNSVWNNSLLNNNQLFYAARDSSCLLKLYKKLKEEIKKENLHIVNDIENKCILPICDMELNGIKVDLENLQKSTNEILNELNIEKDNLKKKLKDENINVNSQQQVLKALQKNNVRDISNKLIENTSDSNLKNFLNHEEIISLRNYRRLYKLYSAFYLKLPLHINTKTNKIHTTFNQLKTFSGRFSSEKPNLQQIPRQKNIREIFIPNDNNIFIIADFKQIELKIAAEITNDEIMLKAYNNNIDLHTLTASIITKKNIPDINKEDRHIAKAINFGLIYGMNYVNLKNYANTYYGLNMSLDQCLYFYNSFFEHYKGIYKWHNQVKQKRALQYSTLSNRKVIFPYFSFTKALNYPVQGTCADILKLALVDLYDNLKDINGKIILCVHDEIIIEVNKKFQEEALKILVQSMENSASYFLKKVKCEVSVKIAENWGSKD

Question: How did the “DNA Pol” value [1] turn out when COc1cccc(Oc2c(C(F)(F)F)oc3cc(OC(=O)N(C)C)ccc3c2=O)c1 [Molecule 52, COc1cccc(c1)Oc1c(=O)c2ccc(cc2oc1C(F)(F)F)OC(=O)N(C)C] was run?
Answer: Its value is 61.

Question: What about the “DNA Pol” value (DNA Pol (primary screen value)) of the same molecule?
Answer: The value was 61.

Question: And the “% inhibition Apo pol 10'” value (DRC-1, concentration 2.5)?
Answer: Its value is 6.553%.

Question: And the “% inhibition Apo pol 10'” value (DRC-1, concentration 5)?
Answer: The value was 12.9509%.

Question: What about the “% inhibition Apo pol 10'” value (DRC-1, concentration 10) of the same molecule?
Answer: The value was 26.9326%.

Question: And the “% inhibition Apo pol 10'” value (DRC-1, concentration 20)?
Answer: Its value is 35.5271%.

Question: And the “% inhibition Apo pol 10'” value (DRC-1, concentration 40)?
Answer: The value was 51.7019%.

Question: And the “% inhibition Apo pol 10'” value (DRC-1, concentration 80)?
Answer: The value was 57.2765%.

Question: What about the “% inhibition Apol 90'” value (DRC-1, concentration 2.5) of the same molecule?
Answer: The value was 11.9844%.

Question: And the “% inhibition Apol 90'” value (DRC-1, concentration 5)?
Answer: The value was 19.0717%.

Question: What about the “% inhibition Apol 90'” value (DRC-1, concentration 10) of the same molecule?
Answer: Its value is 34.8904%.

Question: And the “% inhibition Apol 90'” value (DRC-1, concentration 20)?
Answer: Its value is 41.7615%.

Question: And the “% inhibition Apol 90'” value (DRC-1, concentration 40)?
Answer: Its value is 58.6612%.

Question: And the “% inhibition Apol 90'” value (DRC-1, concentration 80)?
Answer: The value was 63.3235%.

Question: And the “% inhibition apPOL 180'” value (DRC-1, concentration 2.5)?
Answer: Its value is 22.4742%.

Question: What about the “% inhibition apPOL 180'” value (DRC-1, concentration 5) of the same molecule?
Answer: The value was 28.9407%.

Question: What about the “% inhibition apPOL 180'” value (DRC-1, concentration 10) of the same molecule?
Answer: The value was 43.333%.

Question: And the “% inhibition apPOL 180'” value (DRC-1, concentration 20)?
Answer: Its value is 44.974%.

Question: And the “% inhibition apPOL 180'” value (DRC-1, concentration 40)?
Answer: Its value is 65.9617%.

Question: And the “% inhibition apPOL 180'” value (DRC-1, concentration 80)?
Answer: Its value is 64.6101%.

Question: And the “% inhibition Apo pol 5'” value (DRC-2, concentration 2.5)?
Answer: Its value is 15%.

Question: What about the “% inhibition Apo pol 5'” value (DRC-2, concentration 5) of the same molecule?
Answer: Its value is 18%.

Question: And the “% inhibition Apo pol 5'” value (DRC-2, concentration 10)?
Answer: Its value is 27%.

Question: What about the “% inhibition Apo pol 5'” value (DRC-2, concentration 20) of the same molecule?
Answer: The value was 32%.

Question: And the “% inhibition Apo pol 5'” value (DRC-2, concentration 40)?
Answer: The value was 40%.

Question: And the “% inhibition Apo pol 5'” value (DRC-2, concentration 80)?
Answer: Its value is 42%.

Question: What about the “% inhibition Apol 40'” value (DRC-2, concentration 2.5) of the same molecule?
Answer: The value was 14%.

Question: And the “% inhibition Apol 40'” value (DRC-2, concentration 5)?
Answer: The value was 14%.

Question: And the “% inhibition Apol 40'” value (DRC-2, concentration 10)?
Answer: Its value is 33%.

Question: And the “% inhibition Apol 40'” value (DRC-2, concentration 20)?
Answer: Its value is 41%.

Question: And the “% inhibition Apol 40'” value (DRC-2, concentration 40)?
Answer: Its value is 50%.

Question: And the “% inhibition Apol 40'” value (DRC-2, concentration 80)?
Answer: Its value is 56%.

Question: And the “% inhibition ApPOL 90'” value (DRC-2, concentration 2.5)?
Answer: The value was 14%.

Question: And the “% inhibition ApPOL 90'” value (DRC-2, concentration 5)?
Answer: Its value is 8%.

Question: What about the “% inhibition ApPOL 90'” value (DRC-2, concentration 10) of the same molecule?
Answer: Its value is 33%.

Question: And the “% inhibition ApPOL 90'” value (DRC-2, concentration 20)?
Answer: The value was 41%.

Question: What about the “% inhibition ApPOL 90'” value (DRC-2, concentration 40) of the same molecule?
Answer: Its value is 51%.

Question: What about the “% inhibition ApPOL 90'” value (DRC-2, concentration 80) of the same molecule?
Answer: Its value is 58%.

Question: What about the “% inhibition apPOL 180'” value (DRC-2, concentration 2.5) of the same molecule?
Answer: Its value is 6.57%.

Question: What about the “% inhibition apPOL 180'” value (DRC-2, concentration 5) of the same molecule?
Answer: The value was -58%.

Question: What about the “% inhibition apPOL 180'” value (DRC-2, concentration 10) of the same molecule?
Answer: The value was 24%.

Question: What about the “% inhibition apPOL 180'” value (DRC-2, concentration 20) of the same molecule?
Answer: The value was 33%.

Question: And the “% inhibition apPOL 180'” value (DRC-2, concentration 40)?
Answer: Its value is 45%.

Question: What about the “% inhibition apPOL 180'” value (DRC-2, concentration 80) of the same molecule?
Answer: Its value is 54%.

Question: With CCC(C)NC(=O)c1cc(NC(C)=O)cc2nc(C)ccc12 (stereo not shown) [KU0206314] as the molecule, how does the “DNA Pol” value [1] read?
Answer: Its value is 24.

Question: What about the “DNA Pol” value (DNA Pol (primary screen value)) of the same molecule?
Answer: Its value is 24.

Question: And the “% inhibition Apo pol 10'” value (DRC-1, concentration 2.5)?
Answer: Its value is 2.024%.

Question: And the “% inhibition Apo pol 10'” value (DRC-1, concentration 5)?
Answer: The value was 11.6857%.

Question: What about the “% inhibition Apo pol 10'” value (DRC-1, concentration 10) of the same molecule?
Answer: The value was 27.7087%.

Question: What about the “% inhibition Apo pol 10'” value (DRC-1, concentration 20) of the same molecule?
Answer: The value was 37.1675%.

Question: And the “% inhibition Apo pol 10'” value (DRC-1, concentration 40)?
Answer: The value was 74.587%.

Question: What about the “% inhibition Apo pol 10'” value (DRC-1, concentration 80) of the same molecule?
Answer: The value was 89.0945%.

Question: And the “% inhibition Apol 90'” value (DRC-1, concentration 2.5)?
Answer: Its value is -1.658%.

Question: And the “% inhibition Apol 90'” value (DRC-1, concentration 5)?
Answer: Its value is 3.672%.

Question: What about the “% inhibition Apol 90'” value (DRC-1, concentration 10) of the same molecule?
Answer: The value was 15.6061%.

Question: And the “% inhibition Apol 90'” value (DRC-1, concentration 20)?
Answer: Its value is 20.1807%.

Question: And the “% inhibition Apol 90'” value (DRC-1, concentration 40)?
Answer: Its value is 54.0066%.

Question: And the “% inhibition Apol 90'” value (DRC-1, concentration 80)?
Answer: The value was 77.404%.

Question: And the “% inhibition apPOL 180'” value (DRC-1, concentration 2.5)?
Answer: The value was -4.723%.

Question: What about the “% inhibition apPOL 180'” value (DRC-1, concentration 5) of the same molecule?
Answer: Its value is -1.48%.

Question: And the “% inhibition apPOL 180'” value (DRC-1, concentration 10)?
Answer: The value was 7.7142%.

Question: And the “% inhibition apPOL 180'” value (DRC-1, concentration 20)?
Answer: Its value is 9.245%.

Question: And the “% inhibition apPOL 180'” value (DRC-1, concentration 40)?
Answer: The value was 37.6309%.

Question: What about the “% inhibition apPOL 180'” value (DRC-1, concentration 80) of the same molecule?
Answer: Its value is 66.384%.

Question: And the “% inhibition Apo pol 5'” value (DRC-2, concentration 2.5)?
Answer: The value was 10%.

Question: And the “% inhibition Apo pol 5'” value (DRC-2, concentration 5)?
Answer: Its value is 11%.

Question: And the “% inhibition Apo pol 5'” value (DRC-2, concentration 10)?
Answer: The value was 29%.

Question: And the “% inhibition Apo pol 5'” value (DRC-2, concentration 20)?
Answer: Its value is 42%.

Question: And the “% inhibition Apo pol 5'” value (DRC-2, concentration 40)?
Answer: Its value is 49%.

Question: What about the “% inhibition Apo pol 5'” value (DRC-2, concentration 80) of the same molecule?
Answer: Its value is 53%.

Question: And the “% inhibition Apol 40'” value (DRC-2, concentration 2.5)?
Answer: Its value is 7%.

Question: And the “% inhibition Apol 40'” value (DRC-2, concentration 5)?
Answer: The value was 7%.

Question: What about the “% inhibition Apol 40'” value (DRC-2, concentration 10) of the same molecule?
Answer: Its value is 25%.

Question: And the “% inhibition Apol 40'” value (DRC-2, concentration 20)?
Answer: Its value is 40%.

Question: And the “% inhibition Apol 40'” value (DRC-2, concentration 40)?
Answer: The value was 58%.

Question: And the “% inhibition Apol 40'” value (DRC-2, concentration 80)?
Answer: The value was 70%.

Question: What about the “% inhibition ApPOL 90'” value (DRC-2, concentration 2.5) of the same molecule?
Answer: The value was 5.39%.

Question: And the “% inhibition ApPOL 90'” value (DRC-2, concentration 5)?
Answer: Its value is 6%.

Question: What about the “% inhibition ApPOL 90'” value (DRC-2, concentration 10) of the same molecule?
Answer: Its value is 21%.

Question: What about the “% inhibition ApPOL 90'” value (DRC-2, concentration 20) of the same molecule?
Answer: The value was 35%.

Question: What about the “% inhibition ApPOL 90'” value (DRC-2, concentration 40) of the same molecule?
Answer: Its value is 57%.

Question: What about the “% inhibition ApPOL 90'” value (DRC-2, concentration 80) of the same molecule?
Answer: Its value is 73%.

Question: What about the “% inhibition apPOL 180'” value (DRC-2, concentration 2.5) of the same molecule?
Answer: The value was 1.48%.

Question: What about the “% inhibition apPOL 180'” value (DRC-2, concentration 5) of the same molecule?
Answer: The value was 0.928%.

Question: What about the “% inhibition apPOL 180'” value (DRC-2, concentration 10) of the same molecule?
Answer: The value was 12%.

Question: What about the “% inhibition apPOL 180'” value (DRC-2, concentration 20) of the same molecule?
Answer: The value was 23%.

Question: What about the “% inhibition apPOL 180'” value (DRC-2, concentration 40) of the same molecule?
Answer: Its value is 48%.

Question: And the “% inhibition apPOL 180'” value (DRC-2, concentration 80)?
Answer: Its value is 72%.
